Reference: ChEMBL document CHEMBL1150268, “Novel potent and selective thrombin inhibitors based on a central 1,4-benzoxazin-3(4H)-one scaffold” (J Med Chem, 2008)

Assays:
[1] = molecular target: Prothrombin (Homo sapiens, UniProt P00734); assay: Inhibition of thrombin
[2] = Selectivity for trypsin over thrombin
[3] = Inhibition of trypsin
[4] = molecular target: Coagulation factor X (Homo sapiens, UniProt P00742); assay: Inhibition of factor 10a
[5] = Selectivity for factor 10a over thrombin

Sequence of Coagulation factor X (P00742 41-179 limits assumed): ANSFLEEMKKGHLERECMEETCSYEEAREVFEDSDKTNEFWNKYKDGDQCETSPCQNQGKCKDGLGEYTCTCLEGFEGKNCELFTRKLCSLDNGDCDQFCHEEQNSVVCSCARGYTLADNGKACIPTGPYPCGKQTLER
Sequence of Coagulation factor X (P00742 235-488 limits assumed): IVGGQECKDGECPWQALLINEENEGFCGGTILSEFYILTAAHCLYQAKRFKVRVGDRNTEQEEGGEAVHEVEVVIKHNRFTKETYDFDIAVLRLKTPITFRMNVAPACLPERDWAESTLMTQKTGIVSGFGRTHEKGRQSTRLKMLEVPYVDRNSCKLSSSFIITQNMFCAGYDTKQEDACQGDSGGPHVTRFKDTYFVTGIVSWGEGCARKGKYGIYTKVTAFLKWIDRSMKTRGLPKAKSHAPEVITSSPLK

SMILES	Ki [1] [µM]	Ratio Ki [2]	Ki [3] [µM]	Ki [4] [µM]	Ratio Ki [5]
CN1C(=O)C(Cc2ccc(C(=N)N)cc2)Oc2cc(N(Cc3ccccc3)C(=O)CC(=O)O)ccc21 (stereo not given)	0.0026	112000	298	139	52500
CN1C(=O)C(Cc2ccc(C(=N)N)cc2)Oc2cc(NC(=O)C(Cc3ccccc3)C(=O)O)ccc21 (stereo not given)	2.94	1.7	5.13	33.2	11
CN1C(=O)C(Cc2ccc(C(=N)N)cc2)Oc2cc(N(Cc3ccccc3)C(=O)CCC(=O)O)ccc21 (stereo not given)	0.0065	1130	7.41	15.9	2430
COC(=O)C(Cc1ccccc1)C(=O)Nc1ccc2c(c1)OC(Cc1ccc(C(=N)N)cc1)C(=O)N2C (stereo not given)	2.73	4.1	11.2	58.7	22
CN1C(=O)C(Cc2ccc(C(=N)N)cc2)Oc2cc(N(Cc3ccccc3)C(=O)C(=O)O)ccc21 (stereo not given)	0.011	910	10.1	9.27	835

More lines, now with the values ahead:

Ki [1] [µM]	Ratio Ki [2]	Ki [3] [µM]	Ki [4] [µM]	Ratio Ki [5]	SMILES
0.0036	1190	4.29	1.94	537	CCOC(=O)C(=O)N(Cc1ccccc1)c1ccc2c(c1)OC(Cc1ccc(C(=N)N)cc1)C(=O)N2C (stereo not given)
0.0034	1130	3.82	5.71	1690	COC(=O)CC(=O)N(Cc1ccccc1)c1ccc2c(c1)OC(Cc1ccc(C(=N)N)cc1)C(=O)N2C (stereo not given)
0.0058	535	3.1	1.05	181	CCOC(=O)CCC(=O)N(Cc1ccccc1)c1ccc2c(c1)OC(Cc1ccc(C(=N)N)cc1)C(=O)N2C (stereo not given)
